Assay results as given in the supplement of paper PMC10307832.

Experiments:
Experiment in all cases: relative viability (nuclei count vs DMSO), 5 days (fraction); higher = more cells survive
[1] = compound: COc1cc2nccc(Oc3ccc(NC(=O)C4(C(=O)Nc5ccc(F)cc5)CC4)cc3)c2cc1OC [Cabozantinib] + CC1(C)CCC(c2ccc(Cl)cc2)=C(CN2CCN(c3ccc(C(=O)NS(=O)(=O)c4ccc(N[C@H](CCN5CCOCC5)CSc5ccccc5)c(S(=O)(=O)C(F)(F)F)c4)cc3)CC2)C1 [Navitoclax] (partner 0.5 µM)
Outline: (§1)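 Relative viability equals treated-well nuclei counts divided by vehicle-well nuclei counts. Counts came from 4× images of lung cancer cell lines grown in 1536-well plates for 5 days after pin-tool dosing on the day after seeding. Dosing used one drug alone or a fixed anchor-drug dose plus five library-drug doses (not always all listed) in √10 steps, and values are medians of duplicate plates.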

[2] = compound: COc1cc2nccc(Oc3ccc(NC(=O)C4(C(=O)Nc5ccc(F)cc5)CC4)cc3)c2cc1OC [Cabozantinib] + CC(=O)c1c(C)c2cnc(Nc3ccc(N4CCNCC4)cn3)nc2n(C2CCCC2)c1=O [Palbociclib] (partner 0.5 µM)
Outline: as §1

Zosuquidar + Pemetrexed = compound: O[C@@H](COc1cccc2ncccc12)CN1CCN([C@@H]2c3ccccc3[C@@H]3[C@H](c4ccccc42)C3(F)F)CC1 [Zosuquidar] + Nc1nc2[nH]cc(CCc3ccc(C(=O)N[C@@H](CCC(=O)O)C(=O)O)cc3)c2c(=O)[nH]1 [Pemetrexed] (partner 0.2 µM)
Outline: as §1

Kobe2602 + Navitoclax = compound: C1=CC(=CC=C1NC(=S)NNC2=C(C=C(C=C2[N+](=O)[O-])C(F)(F)F)[N+](=O)[O-])F [Kobe2602] + CC1(C)CCC(c2ccc(Cl)cc2)=C(CN2CCN(c3ccc(C(=O)NS(=O)(=O)c4ccc(N[C@H](CCN5CCOCC5)CSc5ccccc5)c(S(=O)(=O)C(F)(F)F)c4)cc3)CC2)C1 [Navitoclax] (partner 0.5 µM)
Outline: as §1

Cell Line | relative viability ([1]; first compound 0.02 µM) | relative viability ([1]; first compound 0.06325 µM) | relative viability ([1]; first compound 0.6325 µM) | relative viability ([1]; first compound 2 µM) | relative viability ([2]; first compound 0.02 µM) | relative viability ([2]; first compound 0.06325 µM) | relative viability ([2]; first compound 0.2 µM) | relative viability ([2]; first compound 0.6325 µM) | relative viability ([2]; first compound 2 µM) | relative viability (Zosuquidar + Pemetrexed; first compound 0.01 µM) | relative viability (Zosuquidar + Pemetrexed; first compound 0.03162 µM) | relative viability (Zosuquidar + Pemetrexed; first compound 0.1 µM) | relative viability (Zosuquidar + Pemetrexed; first compound 0.3162 µM) | relative viability (Zosuquidar + Pemetrexed; first compound 1 µM) | relative viability (Kobe2602 + Navitoclax; first compound 0.2 µM) | relative viability (Kobe2602 + Navitoclax; first compound 0.6325 µM) | relative viability (Kobe2602 + Navitoclax; first compound 2 µM) | relative viability (Kobe2602 + Navitoclax; first compound 6.325 µM) | relative viability (Kobe2602 + Navitoclax; first compound 20 µM) | relative viability ([1]; first compound 0.2 µM)
NCI-H322M | 1.24 | 1.4 | 1.2 | 1.19 | 0.533 | 0.565 | 0.446 | 0.498 | 0.454 | 0.623 | 0.537 | 0.548 | 0.582 | 0.575 | 1.28 | 1.31 | 1.25 | 1.26 | 0.631 | –
NCI-H2228 | 0.784 | 0.689 | 0.824 | 0.805 | 0.588 | 1.08 | 0.802 | 0.941 | 0.837 | 0.359 | 0.302 | 0.315 | 0.324 | 0.361 | 1.08 | 0.621 | 0.69 | 0.743 | 0.841 | 0.725
LK-2 | 0.642 | 1 | 0.886 | 0.794 | – | 0.969 | 0.704 | 0.69 | 0.636 | 0.281 | 0.306 | 0.205 | 0.26 | 0.271 | 0.899 | 1.06 | 0.815 | 0.825 | 0.891 | 0.842
NCI-H1755 | 1 | 1.07 | 0.87 | 0.807 | 0.471 | 0.454 | 0.461 | 0.43 | 0.446 | 0.448 | 0.428 | 0.426 | 0.426 | 0.452 | 0.999 | 0.995 | 0.969 | 0.96 | 0.926 | 0.972
A-427 | 0.988 | 1.03 | 0.978 | 0.978 | 0.524 | 0.584 | 0.521 | 0.493 | 0.527 | 1.01 | 0.996 | 0.806 | 1.02 | 0.796 | 1 | 0.945 | 0.934 | 0.97 | 0.459 | 0.998
PC-3 [JPC-3] | 0.829 | 0.929 | 0.784 | 0.868 | 0.574 | 0.559 | – | 0.514 | 0.636 | 1.34 | 1.04 | 0.873 | 1.1 | 0.366 | 0.833 | 0.775 | 0.76 | 0.847 | 0.717 | –
LOU-NH91 | 0.72 | 0.845 | 0.666 | 0.7 | 0.527 | 0.518 | 0.558 | 0.549 | 0.557 | 0.409 | 0.411 | 0.448 | 0.423 | 0.396 | 0.702 | 0.816 | 0.644 | 0.697 | 0.68 | 0.441
BEN | 0.05 | 0.0759 | 0.213 | 0.0541 | 0.525 | 0.507 | 0.47 | 0.425 | 0.463 | 0.75 | 0.738 | 0.476 | 1.05 | 0.684 | 0.0992 | 0.0652 | 0.0611 | 0.0659 | 0.0705 | 0.0381
NCI-H2085 | 1.16 | 1.17 | 1.21 | 1.06 | 0.519 | 0.469 | 0.524 | 0.476 | 0.498 | 0.953 | 0.697 | – | 0.956 | 0.904 | 1.2 | 1.16 | 1.08 | 1.23 | 1.14 | 1.15
LC-2-ad | 0.454 | 0.57 | 0.35 | 0.325 | 0.569 | 0.569 | 0.472 | 0.367 | 0.341 | 0.255 | 0.276 | 0.296 | 0.31 | 0.282 | 0.378 | 0.374 | 0.453 | 0.371 | 0.404 | 0.541
NCI-H1792 | 0.59 | 0.967 | 0.637 | 0.589 | – | 0.707 | 0.668 | 0.679 | 0.579 | 0.746 | 0.705 | 0.474 | 1.04 | 0.933 | 0.67 | 0.626 | 0.604 | 0.609 | 0.695 | 0.555
EPLC-272H | 1.11 | 1.11 | 1.02 | 1.12 | 0.3 | 0.317 | 0.277 | 0.34 | 0.305 | 0.376 | 0.317 | 0.357 | 0.404 | 0.363 | 1.07 | 1.17 | 1.21 | 1.45 | 0.045 | 0.927
EKVX | 0.899 | 1.1 | 1.03 | 1.07 | 0.397 | 0.41 | 0.307 | 0.394 | 0.544 | 0.373 | 0.392 | – | 0.435 | 0.444 | 0.926 | 0.926 | 0.955 | 0.88 | 0.9 | 0.879
NCI-H1666 | 0.889 | 1.16 | 0.996 | 1.13 | 0.642 | 0.658 | 0.664 | 0.662 | 0.642 | 0.807 | 0.855 | 0.741 | 0.92 | 0.909 | 1.02 | 0.982 | – | 0.77 | 0.924 | 0.887
HCC-15 | 0.743 | 0.739 | 0.67 | 0.645 | 0.824 | 0.797 | 0.716 | 0.718 | 0.672 | 0.209 | 0.218 | 0.255 | 0.219 | 0.236 | 0.715 | 0.728 | 0.665 | 0.664 | 0.65 | 0.77
NCI-H2405 | – | 1.09 | 0.787 | 0.856 | 0.509 | 0.568 | 0.568 | 0.569 | 0.519 | 1.08 | 0.914 | 0.956 | 1.2 | 0.23 | 0.82 | 0.847 | 0.783 | 1.06 | 0.987 | 0.881
